In brackets after ≈: the same amount, converted by molar mass. Like-named read-outs stand apart in the source and are kept apart here.

For the assay, the system named is clinical isolates of multidrug-resistant Klebsiella pneumoniae (and ATCC43816). In words: MIC determination at Fidelta, clinical isolates. It counts as cell-based. The source says: 3.4.2 MIC Determination at Fidelta (Croatia)
Tested reference compounds. Amikacin sulfate (Cat. No. 01693, Chem-Impex), Gentamicin sulfate (Cat. No. G4918, Sigma Aldrich), Ceftazidime Pentahydrate (Cat. No. 1098130, USP), Meropenem (Cat. No. 1392454, USP), Tobramycin (Cat. No. 1667508, USP).
Microbial strains. Klebsiella pneumoniae KP-1919 (abdomen), Klebsiella pneumoniae KP-1935 (urine), Klebsiella pneumoniae KP-1936 (abscess), Klebsiella pneumoniae KP-1937 (blood), Klebsiella pneumoniae KP-1942 (urine), Klebsiella pneumoniae KP-1944 (blood), Klebsiella pneumoniae KP-2027 (tracheal aspirate), Klebsiella pneumoniae KP-2029 (urine), Klebsiella pneumoniae KP-2030 (trachea), Klebsiella pneumoniae KP-2031 (skin), Klebsiella pneumoniae KP-2032 (urine), Klebsiella pneumoniae KP-2033 (urine), Klebsiella pneumoniae KP-2034 (urine), Klebsiella pneumoniae KP-2035 (urine), Klebsiella pneumoniae KP-2036 (urine), Klebsiella pneumoniae KP-2037 (urine), Klebsiella pneumoniae ATCC 43816, Pseudomonas aeruginosa PA-1948 (wound), Pseudomonas aeruginosa PA-1949 (urine), Pseudomonas aeruginosa PA-1950 (sputum), Pseudomonas aeruginosa PA-1952 (wound), Pseudomonas aeruginosa PA-1953 (urine), Pseudomonas aeruginosa PA-1954 (sputum), Pseudomonas aeruginosa PA-1967 (blood), Pseudomonas aeruginosa ATCC27853, Acinetobacter baumannii AB-1931 (urine), Acinetobacter baumannii AB-1932 (urine), Acinetobacter baumannii AB-2017 (bronchial aspirate), Acinetobacter baumannii AB-2018 (skin), Acinetobacter baumannii AB-2019 (bronchial aspirate), Acinetobacter baumannii AB-1964 (blood), Acinetobacter baumannii AB-2025 (skin), Acinetobacter baumannii AB-2026 (skin), Acinetobacter baumannii ATCC17978, methicillin-resistant Staphylococcus aureus MRSA-1995 (liquor), methicillin-resistant Staphylococcus aureus MRSA-1998 (wound), methicillin-resistant Staphylococcus aureus MRSA-1999 (skin), methicillin-resistant Staphylococcus aureus MRSA-2003 (wound), vancomycin-resistant Enterococcus faecium VRE-2005 (urine), vancomycin-resistant Enterococcus faecium VRE-2006 (urine), vancomycin-resistant Enterococcus faecium VRE-2007 (urine), vancomycin-resistant Enterococcus faecium VRE-2008 (urine), vancomycin-resistant Enterococcus faecium VRE-2009 (urine), vancomycin-resistant Enterococcus faecium VRE-2010 (urine), vancomycin-resistant Enterococcus faecium VRE-2011 (rectum), vancomycin-resistant Enterococcus faecium VRE-2012 (rectum), vancomycin-resistant Enterococcus faecium VRE-2013 (rectum).
Culture media and equipment. BBL™ Mueller Hinton Broth (REF 275730, Lot. 7009699, Becton Dickinson); Mueller Hinton Agar 2 (Ref. No. 97580-500G-F, Lot. No. BCBV4646, Sigma); Cellstar, 96-well plates, U-bottom (Cat. No. 650180, Lot. No. E14123EB, Greiner Bio-one); 96-well deep well plate, 1 mL (Cat. No. 278606, Nunc); Incubator (Binder); Laminar flow (Thermo Scientific); BioPhotometer (Eppendorf); DEN-1B (McFarland Densitometer, Biosan); McFarland standards (polymer microparticle suspension, Biosan).
Compound preparation. For testing, 5 mg/mL DMSO solutions of the test compounds and reference antibiotics were used. Out of these DMSO solutions, 43.5 μL was transferred to 1656.5 μL of MH media in a deep well plate. Out of these working solutions 100 μL was transferred to wells in the third column of 96-well plates. Plates are previously filled with 50 μL of MH media in all wells except for the wells in the third column. After compound and antibiotic addition, 50 μL was transferred from the third to the fourth column, then from the fourth to the fifth and so on. In this manner, the compounds and antibiotics were plated in 96-well plate in serial two-fold dilutions giving a final concentration range of 64-0.125 μg/mL.
Inoculum preparation. Designations used for clinical isolates were from Fidelta strain collection bank. Microorganisms used were all revived from skim milk storage at −70° C. by plating them on MH agar plates.

Setting [1] is: Klebsiella pneumoniae, ATCC43816, KP-1919, Abdomen/VIM, ESBL, read-out: MIC 90.
The mark [2] stands for this setting: Klebsiella pneumoniae, ATCC43816, KP-1935, Urine/ESBL, NDM, read-out: MIC 90.
[3] abbreviates: Klebsiella pneumoniae, ATCC43816, KP-1936, Abscess/NDM, read-out: MIC 90.
[4] abbreviates: Klebsiella pneumoniae, ATCC43816, KP-1937, Blood/VIM, ESBL, read-out: MIC 90.
Where [5] appears, read: Klebsiella pneumoniae, ATCC43816, KP-1942, Urine (catheter)/VIM, read-out: MIC 90.
[6] abbreviates: Klebsiella pneumoniae, ATCC43816, KP-1944, Blood/NDM, read-out: MIC 90.
Where [7] appears, read: Klebsiella pneumoniae, ATCC43816, KP-2027, Tracheal aspirate/ESBL, OXA-48, ColR, read-out: MIC 90.

On to `N=C(N)NC1[C@@H](O)C(OC2[C@@H](F)[C@H](O[C@H]3OC(CN)[C@@H](O)[C@H](O)C3N)C(N)C[C@H]2NC(=O)[C@@H](O)CCN)O[C@H](CO)[C@H]1O` (some centres unmarked) [ABX4006, KanaB-AHB-F-Gua], for which the MIC90 reads like this: under setting [1], 1 µg/mL (≈ 1.59 µM); under setting [2], 0.5 µg/mL (≈ 0.795 µM); under setting [3], 0.5 µg/mL (≈ 0.795 µM); under setting [4], 4 µg/mL (≈ 6.36 µM); under setting [5], 0.25 µg/mL (≈ 0.398 µM); under setting [6], 1 µg/mL (≈ 1.59 µM). Further, the MIC90 under setting [7] turned out to be 0.5 µg/mL (≈ 0.795 µM).
`N=C(N)NC1C(O)[C@@H](CO)OC(OC2C(F)[C@H](O[C@H]3OC(CN)[C@@H](O)CC3N)C(N)C[C@H]2NC(=O)[C@@H](O)CCN)[C@@H]1O` (some centres unmarked) [ABX5006, Tobra-AHB-F-Gua]: the “MIC90” value is 0.25 µg/mL (≈ 0.408 µM) (K. pneumoniae ATCC43816 strain); 0.5 µg/mL (≈ 0.816 µM) under setting [1]; 0.5 µg/mL (≈ 0.816 µM) under setting [2]; 0.5 µg/mL (≈ 0.816 µM) under setting [3]; 2 µg/mL (≈ 3.26 µM) under setting [4]; 0.25 µg/mL (≈ 0.408 µM) under setting [5]. Besides, the MIC90 was determined as 1 µg/mL (≈ 1.63 µM) under setting [6]; 0.5 µg/mL (≈ 0.816 µM) under setting [7]; 0.25 µg/mL (≈ 0.408 µM) (Klebsiella pneumoniae, ATCC43816, KP-2029, Urine/ESBL, OXA-48, read-out: MIC 90); 0.5 µg/mL (≈ 0.816 µM) (Klebsiella pneumoniae, ATCC43816, KP-2030, Trachea/ESBL, OXA-48, read-out: MIC 90); 0.5 µg/mL (≈ 0.816 µM) (Klebsiella pneumoniae, ATCC43816, KP-2031, Skin/ESBL, OXA-48, read-out: MIC 90); 0.25 µg/mL (≈ 0.408 µM) (Klebsiella pneumoniae, ATCC43816, KP-2032, Urine/ESBL, OXA-48, read-out: MIC 90). The MIC90 amounted to 0.25 µg/mL (≈ 0.408 µM) (Klebsiella pneumoniae, ATCC43816, KP-2033, Urine/OXA-A8, read-out: MIC 90); 0.5 µg/mL (≈ 0.816 µM) (Klebsiella pneumoniae, ATCC43816, KP-2034, Urine/ESBL, OXA-48, read-out: MIC 90); 0.5 µg/mL (≈ 0.816 µM) (Klebsiella pneumoniae, ATCC43816, KP-2035, Urine/ESBL, OXA-48, read-out: MIC 90); 0.25 µg/mL (≈ 0.408 µM) (Klebsiella pneumoniae, ATCC43816, KP-2036, Urine/ESBL, read-out: MIC 90); 0.5 µg/mL (≈ 0.816 µM) (Klebsiella pneumoniae, ATCC43816, KP-2037, Urine/ESBL, OXA-48, read-out: MIC 90).
For the compound `N=C(NCCN)NC1C(O)[C@@H](CO)OC(OC2C(F)[C@H](O[C@H]3OC(CN)[C@@H](O)CC3N)C(N)C[C@H]2NC(=O)[C@@H](O)CCN)[C@@H]1O` (some centres unmarked) [ABX5020, Tobra-AHB-F-Gua-2-amino-ethyl], the “MIC90” value is, setting by setting: (K. pneumoniae ATCC43816 strain) 1 µg/mL (≈ 1.53 µM); under setting [1], 4 µg/mL (≈ 6.1 µM); under setting [2], 4 µg/mL (≈ 6.1 µM); under setting [3], 2 µg/mL (≈ 3.05 µM); under setting [4], 8 µg/mL (≈ 12.2 µM); under setting [5], 1 µg/mL (≈ 1.53 µM). Also, the MIC90 under setting [6] is 4 µg/mL (≈ 6.1 µM) and the MIC90 under setting [7] is 2 µg/mL (≈ 3.05 µM).

The values are drawn from patent US20220127297A1, “Novel Antibacterial 3"-Derivatives Of 4,6-Disubstituted 2,5-Dideoxystreptamine Aminoglycoside Antibiotics” (AGILeBiotics B.V., priority 2018, published 2022).
